# Earlier results in patent US20070281011A1, “Nanoparticulate posaconazole formulations” (Elan Pharma International Ltd., priority 2006, published 2007).
# Tests used:
# [1] = meal containing fat calories; regardless of formulation (tablet versus suspension)
# [2] = test system: cytochrome P450 14a-demethylase (P45014DM); details: particularly in Aspergillus
structure (smiles),measurement,setting,value
CC[C@@H]([C@H](C)O)n1ncn(-c2ccc(N3CCN(c4ccc(OC[C@@H]5CO[C@@](Cn6cncn6)(c6ccc(F)cc6F)C5)cc4)CC3)cc2)c1=O [Posaconazole],aqueous solubility,,< 1 µg/mL
same,increase of relative oral bioavailability,[1],approximately 400%
same,inhibition of sterol C14 demethylation compared to itraconazole,[2],significantly more potent inhibitor
